Where a name gives a salt, the structure may show the parent alone. Read-outs that look alike come from different tables or passages of the source.
Tests used:
[1] = system: heart rate response to isoproterenol (β-adrenergic); assay: Cardiovascular experiments in dogs: blockade of isoproterenol heart rate response; assay type: in vivo, mongrel dogs; conditions: for Duration, Mean (time at which response to isoproterenol had returned to control levels) / Duration, Range (time at which response to isoproterenol had returned to control levels) / Maximal blockade, Mean (time necessary to reach maximal blockade) / Maximal blockade, Range (time necessary to reach maximal blockade): 1 mg/kg i.v.; for Maximal blockade, Mean (time necessary to reach maximal blockade) / Maximal blockade, Range (time necessary to reach maximal blockade): 15 minute measurements
Experimental: Method. Healthy, mongrel dogs were anesthetized with a combination of morphine sulfate (2.0 mg/kg, subcutaneously) followed in 20 minutes with pentabarbital sodium (15 mg/kg, intravenously). Supplemental pentabarbital was given as necessary. A femoral vein was catheterized with polyethylene tubing to the level of the heart for injecting drug solutions. A polyethylene tube filled with heparinized saline was inserted through the femoral artery and advanced to the thoracic aorta for the measurement of arterial pressure. The left carotid artery was cannulated with a Millar® transducer-tip catheter for measurement of left ventricular pressure (LVP). The rising slope of the LVP signal was differentiated to give dP/dt, an estimate of myocardial contractility. Heart rate was determined via a Grass cardiotachometer triggered by the R wave of the lead II EKG. All variables were recorded on a Grass polygraph.
Dose-response curves were constructed for each experimental variable to graded i.v. doses of the β-adrenergic agonist, isoproterenol. A period of 3-5 minutes was allowed after each injection for variables to return to base-line. Following this, one of the four experimental β-adrenergic blocking agents was given i.v. over a one-minute period. Abbreviated dose-response curves (2-3 dose points) were again constructed to isoproterenol at 15, 30, 45, 60, 75 and 90 minutes after the administration of the test blockers. Using a 50-beat per minute (bpm) increase in heart rate as criteria, the degree of blockade was determined by dividing the dose of isoproterenol needed to produce a 50 bpm increase at various times following administration of an antagonists by the dose needed for this effect during the control period. The doses of the experimental β-adrenergic antagonists given were determined from previous experiments to produce an approximate two- or four-fold blockade of the heart rate response to isoproterenol.

[2] = Hydrolytic rate in 0.01 N aqueous sodium hydroxide, pH 12.0; assay type: physicochemical; conditions: for Observed pseudo first order hydrolytic rate constant k: 0.01 N NaOH, ± SEM; for Observed pseudo first order hydrolytic rate constant k / half-life: pH 12.0, ionic strength 0.10 M (NaCl), 27.3 ± 0.2° C.; for half-life: 0.01 n naoh, pH 12, 0.01 N NaOH, read-out: Half-life t1/2
Experimental: (§1) Analytical Methods. A high pressure liquid chromatography (HPLC) method was developed for the determination of the rate constants. The chromatographic analysis was performed in a system consisting of Waters Associates Model 600-A Solvent Delivery System, Model U-6K Injector and Model 440 Dual Channel Absorbance Detector operated at 254 and 280 nm. A 30 cm×3.9 mm (internal diameter) reverse phase μBondpack C18 column (Waters Associates), operated at ambient temperature, was used for all separations. When plasma samples were analyzed, the column was protected with a 2.3 cm×3.9 mm (internal diameter) Guard Column (Waters) packed with μBondpack C18/Corasil packing material. The mobile phase used for the separation of 17 and its degradation product, 5, consisted of water, 1-hexane sulfonic acid in acetic acid (B-6 reagent, Waters), 0.1M triethanolamine and methanol (100:1:100:799). […] For the separation of compounds 10-16 and 18 and their degradation product 5, a mobile phase consisting of water, 1-hexane sulfonic acid in acetic acid (B-6 reagent, Waters), 0.1M triethanolamine and methanol (390:1:10:599) was used.
(§2) Determination of the Hydrolytic Rate Constants in Aqueous Solutions. A 0.01M phosphate buffer and 0.01N sodium hydroxide solution were prepared from freshly distilled deionized water. This ionic strength was maintained at 0.1M with sodium chloride. The pH of the phosphate buffer was determined at 37.0° C. with a pH meter standardized at this temperature. For determination of the hydrolytic rate constants, a fresh concentrated solution of the ester in methanol was added to the hydrolytic medium previously equilibrated to the desired temperature and mixed thoroughly to result in an initial concentration of about 5×10^-4 mol. liter^-1. All reactions were run under pseudo first order conditions. Samples of 25 μL were injected into the column at various time intervals and the pseudo first order rate constants were determined from disappearance of the compound by linear regression of natural logarithm of the peak height versus time plots. The half-life and standard error of the rate constant were calculated for each run.

[3] = Enzymatic hydrolytic cleavage in human plasma; assay type: in vitro ADME; conditions: for hydrolysis in human plasma: three hours where stated; for Observed first order hydrolytic rate constant k: ± SEM; for half-life at 1000 µM: human, plasma
Experimental: as §1, §2
Determination of the Enzymatic Hydrolytic Cleavage Rates in Human Plasma. The freshly collected plasma used was obtained from the Civitan Regional Blood Center, Inc. (Gainesville, Fla.) and contained about 80% plasma diluted with anticoagulant citrate phosphate dextrose solution, U.S.P. The plasma was stored in a refrigerator and used within one week from the date it was collected.
A portion of 50 μL of a freshly prepared solution of the compound in methanol was added to 10 mL plasma, previously equilibrated at 37.0° C. in a water bath, and mixed thoroughly to result in an initial concentration of 1×10^-3 mol. liter^-1. One mL samples of plasma were withdrawn from the test medium, mixed immediately with 4.0 mL ice cold 95% v/v ethanol, centrifuged and the supernatant analyzed by HPLC. The first order hydrolytic rate constant was determined as before in the aqueous solutions and the results are listed in TABLE II below.

[4] = system: heart rate response to isoproterenol (β-adrenergic); assay: Heart rate response to isoproterenol in rats (initial drug screening); assay type: in vivo, male Spraque-Dawley rats; conditions: 6 mg/kg i.p.; for resting heart rate prior to administration of isoproterenol: mean ± SEM
Source text: (§3) Initial Drug Screening Protocol. Thirty-two male Spraque-Dawley rats (Blue Spruce Farms) initially weighing 300-450 gm were divided into seven different groups, each for a different drug to be tested: 12(n=4), 14(n=4), 17(n=5), 13(n=4) and 18(n=3), corresponding to the designated compounds 12, 14, 17, 13 and 18 (number of animals), respectively. The other two groups were controls (n=8, isoproterenol alone pretreated with carrier) and those treated with a known β-blocker, dl-propranolol (n=3). Ech animal was anesthetized with sodium pentobarbital (45 mg/kg) and the carotid artery was cannulated with PE-50 tubing. The cannula was subcutaneously threaded around the neck and exteriorized dorsally between the shoulder blades. Th cannula was filled with a heparin solution (300 μg/mL) and sealed with a solid 22 gauge stylet. The animals were housed in individual stainless steel cages, and two days were allowed for recovery from the surgery. Food and water were provided ad libitum. On the day of the experiment, the blood pressure and heart rate of each rat were monitored with a pressure transducer (Narco-Bio model P-1000) and the data recorded on a four-channel physiograph (Narco-Bio systems Marck IV). One hour was allowed as an equilibration period before any drugs were administered. All beta blockers were administered intraperitoneally at a dose of 6 mg/kg. Compounds 12 and 14 and dl-proranolol were dissolved in normal saline while compounds 13, 17 and 18 were dissolved in an ethanol: water solution (3:1). Depending on the trial, controls were administered the appropriate carrier. One hour after administration of the blocker, isoproterenol (Isuprel®, Wintrop Laboratories) was administered subcutaneously at a dose of 25 μg/kg. Blood pressures and heart rate also were recorded 3, 5, 10, 15, 20, 30, 45 and 60 minutes after isoproterenol administration. Both control and experimental animals were unrestrained and free moving in their home cage throughout the experiment. […] However, significant differences in the mean heart rate response amoung the 7 groups were observed: *p<0.005;**p<0.025. Comparisons between groups were made by the Newman-Keuls procedure with significance set at the 95% confidence interval. […] All data are shown as mean±standard error of the mean.

[5] = system: blood pressure response to isoproterenol; assay: Blood pressure response to isoproterenol in rats; assay type: in vivo, male Spraque-Dawley rats; conditions: 6 mg/kg i.p.
Source text: as §3
Symbols are the same as those described for FIG. 1. […] Data are shown as mean±standard error of the mean.

[6] = 37.0 ± 0.1° C., read-out: Half-life t1/2

Structure (SMILES) | Duration, Mean (time at which response to isoproterenol had returned to control levels) [1] | Duration, Range (time at which response to isoproterenol had returned to control levels) [1] [min] | Maximal blockade, Mean (time necessary to reach maximal blockade) [1] [min] | Maximal blockade, Range (time necessary to reach maximal blockade) [1] | Observed first order hydrolytic rate constant k ([3]; 37.0 ± 0.1° C.) | half-life at 1000 µM [3, 6] [min] | Observed pseudo first order hydrolytic rate constant k [2] | half-life [2] [min] | resting heart rate prior to administration of isoproterenol [4] [beat/minute] | also measured
CC(C)NCC(O)COc1ccc(CC(=O)OC2C(C)CCCC2C)cc1 (centres unmarked) [Compound 16, 2,6-Dimethylcyclohexyl 4-(2-hydroxy-3-isopropylamino)propoxyphenylacetate oxalate hydrate] | ~ 65 min | 45 to 90 | 38 | 15 to 60 min | 1.64 ± 0.14 × 10^-2 min^-1 | 42.2 |  |  |  | duration of action ([1]; i.v.): much more variable and generally longer; hydrolysis kinetics ([2]; pH 12, 1:2 mixture of two isomers): biphastic kinetics; hydrolysis in human plasma ([3]; 37.0 ± 0.1° C., oxalate hydrate): did not hydrolyze in the plasma within 3 hours
CC(C)NCC(O)COc1cccc2ccccc12 (centres unmarked) [propranolol, reference compound] |  |  |  |  |  |  |  |  |  | mean heart rate response to isoproterenol, comparison between groups ([4]; 1 hour before isoproterenol 25 μg/kg s.c., Newman-Keuls, first 20 minutes (17) or first 30 minutes (propranolol)): significantly different for the first 30 minutes; mean heart rate response to isoproterenol vs groups treated with compound 12 and 18 ([4]; 10 through 45 minutes following isoproterenol): significantly different than the groups treated with compound 12 and 18
CCCCOC(=O)Cc1ccc(OCC(O)CNC(C)C)cc1 (centres unmarked) [Compound 13, n-Butyl 4-(2-hydroxy-3-isopropylamino)propoxyphenylacetate] |  |  |  |  |  |  | 9.27 ± 0.07 × 10^-2 min^-1 | 7.48 | 340±14 | control of heart rate 60 minutes after administration ([4]; FIG. 1): effectively control the heart rate; half-life at 1000 µM ([3]; read-out: in vitro plasma half-life): ~1 min; mean change in blood pressure vs propranolol and compound 12-treated groups ([5]; isoproterenol 25 μg/kg s.c., FIG. 3): significantly lower (p<0.15); mean change in blood pressure at 10 minutes vs compound 12-treated group ([5]; 10 minutes after isoproterenol): different from the compound 12-treated group; mean change in blood pressure at 10 minutes vs compound 18 group ([5]; 10 minutes after isoproterenol): significantly different from the group treated with compound 18; mean change in blood pressure at 15 minutes vs compound 12, 18 and control vehicle ([5]; 15 minutes after isoproterenol): significantly different from groups pretreated with compound 12, 18 and the control vehicle
CC(C)NCC(O)COc1ccc(CC(=O)OC2CCCCC2)cc1 (centres unmarked) [Compound 15, Cyclohexyl 4-(2-hydroxy-3-isopropylamino)propoxyphenylacetate oxalate 3/4 hydrate] | ~ 85 min | 75 to 90 | 20 | 15 to 30 min | 1.46 ± 0.15 min⁻¹ | 0.47 | 4.96 ± 0.03 × 10^-2 min^-1 | 14 |  | duration of action ([1]; i.v.): longest duration of action; time after administration at which antagonism dissipated / heart rate responsiveness returned to control ([1]; i.v.): approximately 90 minutes; β1-antagonist activity / blocking of cardiac effects of isoproterenol ([1]; i.v., FIG. 4): most potent in blocking the cardiac effects of isoproterenol; half-life at 1000 µM ([3]; shortest, read-out: plasma hydrolytic half-life): < 1 min
CC(C)NCC(O)COc1cccc2ccccc12 (racemic) [d,l-propranolol, dl-propranolol, reference compound] |  |  |  |  |  |  |  |  | 320±23 | 
CC(C)NCC(O)COc1ccc(CC(=O)OC(C)C)cc1 (centres unmarked) [Compound 12, Isopropyl 4-(2-hydroxy-3-isopropylamino)propoxyphenylacetate] |  |  |  |  | 0.414 ± 0.001 × 10^-2 min^-1 | 167 | 2.07 ± 0.03 × 10^-2 min^-1 | 33.5 | 345±19 | hydrolyzed up to x times more slowly than many of the other esters [3]: up to 100 times
CCOC(=O)Cc1ccc(OCC(O)CNC(C)C)cc1 (centres unmarked) [Compound 10, Ethyl 4-(2-hydroxy-3-isopropylamino)-propoxyphenylacetate] | ~ 50 min | 45 to 60 | 15 | 15-15 min | 0.238 ± 0.010 min⁻¹ | 2.91 | 0.117 ± 0.001 min⁻¹ | 5.91 |  | 
CCCCOC(=O)Cc1ccc(OCC(O)CNC(C)(C)C)cc1 (centres unmarked) [Compound 18, n-Butyl 4-(2-hydroxy-3-tert-butylamino)propoxyphenylacetate oxalate hydrate] |  |  |  |  | 0.351 ± 0.019 min⁻¹ | 1.98 | 7.19 ± 0.04 × 10^-2 min^-1 | 9.64 | 307±7 | hydrolysis in human plasma ([3]; 37.0 ± 0.1° C.): did not affect the hydrolysis rates

From patent US4829086A, “Soft β-adrenergic blocking agents” (priority 1985, dated 1989)
